Experiments:
[1] = tested on: GT-1a pRLuc H771b 75 S/I subgenomic replicon cell line; experiment: HCV GT-1a replicon luciferase reporter assay; type: cell-based; settings: Hepatitis C virus, GT1A, 72 h, read-out: GT-1a (IC50) (nM)
In short: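 Huh-7-derived subgenomic replicon cells (GT-1b Con1 2209-23, 5000/well; GT-1a H77 chimera with Con1 NS3 first 75 aa, 3000/well) in 5% FBS DMEM; compounds added 24 h post-plating, 3-fold dilutions, 1% DMSO. Renilla luciferase read after 72 h; EC50 is 50% signal reduction versus untreated, non-linear fit.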

[2] = tested on: HCV GT1b replicon (2209-23 cell line, GT-1b Con1 subgenomic replicon in Huh-7); experiment: HCV GT1b replicon luciferase reporter assay; type: cell-based; settings: Hepatitis C virus, Huh-7, 2209-23 cells (GT-1b Con1), Renilla luciferase read 72 hours after addition of compounds; for IC50: read-out: GT-1b (IC50)
Source text: Determination of compounds HCV GT1b inhibitory replicon activity using the replicon luciferase reporter assay
The 2209-23 cell line was developed at Roche by stable transfection of the hepatoma cell line Huh-7 with a GT-1b Con1 subgenomic bicistronic replicon as previously described. Subgenomic replicon cell line was established in cured Huh7 cells, obtained from R. Bartenschlager (J. Virol. 2003 March; 77 (5):3007-19) The GT-1a H77 subgenomic replicon vector pRLuc H771b 75 S/I, was created by replacing the non structural region of the GT-1b Con1 subgenomic replicon by the one of the H77 strain, except for the first 75 amino acids of the NS3 protein that are from GT-1b Con1 strain. (J. Virol. 2001 77:5352-59) The GT-1a pRLuc H771b 75 S/I subgenomic replicon cell line was established in cured Huh7 cells, obtained from R. Bartenschlager. (J. Virol. 2003 March; 77 (5):3007-19)
All the subgenomic replicon cell lines were cultured in Dulbecco's Modified Eagle Medium (DMEM-Glutamax™-I; Invitrogen Cat #10569-010). The medium was supplemented with 10% Fetal Bovine Serum (Invitrogen Cat #10082-147), 1% penicillin/streptomycin (Mediatech Cat #30-002-CI) and 500 μg/ml of G418 (Mediatech Cat #30-234-CI). Cells were maintained at 37° C. in a humidified 5% CO2 atmosphere.
2209-23 cells were plated at a cell density of 5000 cells per well in 96 well plates (Becton Dickinson, Cat #35 3296). Cells were plated in 90 μl of Dulbecco's Modified Eagle Medium (DMEM-Glutamax™-I), (Invitrogen Cat #10569-010) medium was supplemented with 5% Fetal Bovine Serum (Invitrogen Cat #10082-147), 1% penicillin/streptomycin (Mediatech Cat #30-002-CI). The pRluc H771b 75 S/I cells were plated in 96-well plate at 3000 cells/well in DMEM-Glutamax™-I containing 5% FBS and 1% penicillin/streptomycin in 90 μl final volume. Cells were allowed to equilibrate for 24 hours at 37° C. and 5% CO2 at which time compounds were added. Compounds (or medium as a control) were added 24 hours post-plating in 3 fold dilutions at a final DMSO concentration of 1% in 10 ul volume. Renilla luciferase reporter signal was read 72 hours after addition of compounds using the Renilla Luciferase Assay System (Promega, cat #E2820). EC50 values were defined as the compound concentration at which a 50% reduction in the levels of renilla luciferase reporter was observed as compared to control samples in the absence of compound and was determined by non-linear fitting of compound dose-response data. The EC50 was approximated if maximum percentage inhibition was less than 90% and more than 70%.

SMILES	IC50 [1] [nM]	IC50 [2] [nM]	EC50 [2] [nM]
COC(=O)NC(C(=O)N1CCCC1c1ncc(-c2ccc(-c3ccc(-c4cnc([C@@H]5Cc6cc(Br)cc7c6N5C(=O)[C@@H](NC(=O)OC)CC7)[nH]4)cc3)cc2)[nH]1)C(C)C (stereo in doubt) [Compound I-25, {(2S,5S)-9-Bromo-2-[5-(4′-{2-[(R)-1-((R)-2-methoxycarbonylamino-3-methyl-butyryl)-pyrrolidin-2-yl]-3H-imidazol-4-yl}-biphenyl-4-yl)-1H-imidazol-2-yl]-4-oxo-1,2,4,5,6,7-hexahydro-azepino[3,2,1-hi]indol-5-yl}-carbamic acid methyl ester]	31.2	1.21	–
COC(=O)N[C@H]1CCc2cccc3c2N(C1=O)[C@H](c1nc2ccc(-c4ccc(-c5ccc6nc([C@@H]7CCCN7C(=O)[C@@H](NC(=O)OC)C(C)C)[nH]c6c5)cc4)cc2[nH]1)C3 [Compound I-5, {(2S,5S)-2-[6-(4-{2-[(S)-1-((S)-2-Methoxycarbonylamino-3-methyl-butyryl)-pyrrolidin-2-yl]-3H-benzoimidazol-5-yl}-phenyl)-1H-benzoimidazol-2-yl]-4-oxo-1,2,4,5,6,7-hexahydro-azepino[3,2,1-hi]indol-5-yl}-carbamic acid methyl ester]	49.8	0.093	–
COC(=O)N[C@H]1CCc2cccc3c2N(C1=O)[C@H](c1nc2ccc(-c4ccc5nc(-c6ccc7nc([C@@H]8CCCN8C(=O)[C@@H](NC(=O)OC)C(C)C)[nH]c7c6)cnc5c4)cc2[nH]1)C3 [Compound I-6]	17.5	0.2	–
COC(=O)N[C@H]1CCc2cccc3c2N(C1=O)[C@H](c1ncc(-c2ccc(-c4ccc(-c5cnc(C6CC7(CCOCC7)CN6C(=O)[C@@H](NC(=O)OC)C(C)C)[nH]5)cc4)cc2)[nH]1)C3 (stereo partly drawn) [Compound I-9, {(2S,5S)-2-[5-(4′-{2-[2-((S)-2-Methoxycarbonylamino-3-methyl-butyryl)-8-oxa-2-aza-spiro[4.5]dec-3-yl]-3H-imidazol-4-yl}-biphenyl-4-yl)-1H-imidazol-2-yl]-4-oxo-1,2,4,5,6,7-hexahydro-azepino[3,2,1-hi]indol-5-yl}-carbamic acid methyl ester]	3.36	0.03	–
CC[C@H](C)[C@H](NC(=O)OC)C(=O)N1CCC[C@H]1c1ncc(-c2ccc(-c3cnc4cc(-c5cnc([C@@H]6Cc7cccc8c7N6C(=O)[C@@H](NC(=O)OC)CC8)[nH]5)ccc4n3)cc2)[nH]1 [Compound I-56, ((2S,5S)-2-{5-[2-(4-{2-[(S)-1-((2S,3S)-2-Methoxycarbonylamino-3 methyl-pentanoyl)-pyrrolidin-2-yl]-3H-imidazol-4-yl}-phenyl)quinoxalin-6-yl]-1H-imidazol-2-yl}-4-oxo-1,2,4,5,6,7-hexahydro-azepino[3,2,1-hi]indol-5-yl)-carbamic acid methyl ester]	3	–	–
COC(=O)N[C@H]1CCc2cccc3c2N(C1=O)[C@H](c1ncc(-c2ccc(-c4ncc(-c5cnc([C@@H]6CC(F)(F)CN6C(=O)[C@@H](NC(=O)OC)C(C)C)[nH]5)cn4)cc2)[nH]1)C3 [Compound I-57, ((2S,5S)-2-{4-[4-(5-{2-[(S)-4,4-Difluoro-1-(2-methoxycarbonylamino-3-methyl-butyryl)-pyrrolidin-2-yl]-3H-imidazol-4-yl}-pyrimidin-2-yl)-phenyl]-1H-imidazol-2-yl}-4-oxo-1,2,4,5,6,7-hexahydro-azepino[3,2,1-hi]indol-5-yl)-carbamic acid methyl ester]	17.1	–	–
CC[C@H](C)[C@H](NC(=O)OC)C(=O)N1CC(F)(F)C[C@H]1c1ncc(-c2cnc(-c3ccc(-c4cnc([C@@H]5Cc6cccc7c6N5C(=O)[C@@H](NC(=O)OC)CC7)[nH]4)cc3)nc2)[nH]1 [Compound I-58, ((1S,2S)-1-{(S)-4,4-Difluoro-2-[5-(2-{4-[2-((2S,5S)-5-methoxycarbonylamino-4-oxo-1,2,4,5,6,7-hexahydro-azepino[3,2,1-hi]indol-2-yl)-1H-imidazol-4-yl]-phenyl}-pyrimidin-5-yl)-1H-imidazol-2-yl]-pyrrolidine-1-carbonyl}-2-methyl-butyl)-carbamic acid methyl ester]	26.1	–	–
COC(=O)N[C@H]1CCc2cccc3c2N(C1=O)[C@H](c1ncc(-c2ccc(-c4ccc(-c5nnc([C@@H]6CCCN6C(=O)[C@H](NC(=O)OC)c6ccccc6)[nH]5)cc4)cc2)[nH]1)C3 [Compound I-60, {(2S,5S)-2-[5-(4′-{5-[(S)-1-((R)-2-Methoxycarbonylamino-2-phenyl-acetyl)-pyrrolidin-2-yl]-4H-[1,2,4]triazol-3-yl}-biphenyl-4-yl)-1H-imidazol-2-yl]-4-oxo-1,2,4,5,6,7-hexahydro-azepino[3,2,1-hi]indol-5-yl}-carbamic acid methyl ester]	51.4	–	–
COC(=O)N[C@H]1CCc2cccc3c2N(C1=O)[C@H](c1ncc(-c2ccc(-c4ccc(-c5nnc([C@@H]6CCCN6C(=O)[C@@H](NC(=O)OC)C(C)C)[nH]5)cc4)cc2)[nH]1)C3 [Compound I-61, {(2S,5S)-2-[5-(4′-{5-[(S)-1-((S)-2-Methoxycarbonylamino-3-methyl-butyryl)-pyrrolidin-2-yl]-4H-[1,2,4]triazol-3-yl}-biphenyl-4-yl)-1H-imidazol-2-yl]-4-oxo-1,2,4,5,6,7-hexahydro-azepino[3,2,1-hi]indol-5-yl}-carbamic acid methyl ester]	67.2	–	–
COC(=O)N[C@H]1CCc2cccc3c2N(C1=O)[C@H](c1ncc(-c2ccc(-c4ccc(-c5cnc([C@@H]6COCCN6C(=O)[C@@H](NC(=O)OC)C(C)C)[nH]5)cc4)cc2)[nH]1)C3 [Compound I-64, {(2S,5S)-2-[5-(4′-{2-[(R)-4-((S)-2-Methoxycarbonylamino-3-methyl-butyryl)-morpholin-3-yl]-3H-imidazol-4-yl}-biphenyl-4-yl)-1H-imidazol-2-yl]-4-oxo-1,2,4,5,6,7-hexahydro-azepino[3,2,1-hi]indol-5-yl}-carbamic acid methyl ester]	9.87	–	–
COC(=O)N[C@H]1CCc2cccc3c2N(C1=O)[C@H](c1ncc(-c2ccc(-c4ccc(-c5cnc(C6C7CC7CN6C(=O)[C@H](NC(=O)OC)c6ccccc6)[nH]5)cc4)cc2)[nH]1)C3 (stereo partly drawn) [Compound I-65, {(2S,5S)-2-[5-(4′-{2-[(S)-3-((R)-2-Methoxycarbonylamino-2-phenyl-acetyl)-3-aza-bicyclo[3.1.0]hex-2-yl]-3H-imidazol-4-yl}-biphenyl-4-yl)-1H-imidazol-2-yl]-4-oxo-1,2,4,5,6,7-hexahydro-azepino[3,2,1-hi]indol-5-yl}-carbamic acid methyl ester]	67.2	–	–
COC(=O)N[C@H]1CCc2cccc3c2N(C1=O)[C@H](c1ncc(-c2ccc(-c4ccc(-c5cnc([C@@H]6CCCN6C(=O)[C@@H](NC(=O)OC)C(C)C)[nH]5)cc4)cc2)[nH]1)C3 [Compound I-66, {(2S,5S)-2-[5-(4′-{2-[(S)-1-((S)-2-Methoxycarbonylamino-3-methyl-butyryl)-pyrrolidin-2-yl]-3H-imidazol-4-yl}-biphenyl-4-yl)-1H-imidazol-2-yl]-4-oxo-1,2,4,5,6,7-hexahydro-azepino[3,2,1-hi]indol-5-yl}-carbamic acid methyl ester]	–	–	0.036
COC(=O)N[C@H]1CCc2cccc3c2N(C1=O)[C@H](c1ncc(-c2ccc(-c4ccc(-c5cnc([C@@H]6CCCN7C(=O)CC[C@H](NC(=O)OC)C(=O)N67)[nH]5)cc4)cc2)[nH]1)C3 [Compound I-67]	–	–	0.528
COC(=O)N[C@H]1CCc2cccc3c2N(C1=O)[C@H](c1nc2ccc(-c4ccc5cc(-c6cnc([C@@H]7CCCN7C(=O)[C@@H](NC(=O)OC)C(C)C)[nH]6)ccc5c4)cc2[nH]1)C3 [Compound I-68]	–	–	0.062

From patent publication US20120230951A1 (priority 2011, published 2012)
